# Assay results reported in ChEMBL document CHEMBL1127549, “Synthesis and delta-opioid receptor antagonist activity of a naltrindole analogue with a regioisomeric indole moiety” (J Med Chem, 1994).
# Experiments:
# Mu-type opioid receptor [1] = biological target: T1, Mu-type opioid receptor (Cavia porcellus, UniProt P97266); test: Antagonist activity against mu-opioid receptor in guinea pig ileum in the presence of morphine; type: functional, tissue-based
# [2] = biological target: Delta-type opioid receptor (Mus musculus, UniProt P32300); test: Antagonist activity against delta-opioid receptor in mouse vas deferens in the presence of DADLE; type: functional, tissue-based
# [3] = biological target: T2, Kappa-type opioid receptor (Cavia porcellus, UniProt P41144); test: Antagonist activity against kappa-opioid receptor in guinea pig ileum in the presence of ethylketazocine; type: functional, tissue-based
# Mu-type opioid receptor [4] = biological target: T1, Mu-type opioid receptor; test: Binding affinity against mu-opioid receptor in guinea pig brain membranes; type: cell membranes, Membrane
# [5] = biological target: T2, Kappa-type opioid receptor; test: Binding affinity against kappa-opioid receptor in guinea pig brain membranes; type: cell membranes, Membrane
# Chain of Delta-type opioid receptor (P32300 whole entry): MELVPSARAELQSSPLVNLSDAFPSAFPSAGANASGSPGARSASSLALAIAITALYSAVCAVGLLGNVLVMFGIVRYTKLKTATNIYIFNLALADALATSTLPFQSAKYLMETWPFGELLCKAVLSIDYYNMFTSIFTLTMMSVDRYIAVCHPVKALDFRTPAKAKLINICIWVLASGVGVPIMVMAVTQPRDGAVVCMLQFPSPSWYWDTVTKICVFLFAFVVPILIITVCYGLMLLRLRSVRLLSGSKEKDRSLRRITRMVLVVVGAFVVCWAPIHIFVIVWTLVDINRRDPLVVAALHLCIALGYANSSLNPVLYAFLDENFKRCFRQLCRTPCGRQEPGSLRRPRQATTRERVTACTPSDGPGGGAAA
# T2 sequence (P41144 whole entry): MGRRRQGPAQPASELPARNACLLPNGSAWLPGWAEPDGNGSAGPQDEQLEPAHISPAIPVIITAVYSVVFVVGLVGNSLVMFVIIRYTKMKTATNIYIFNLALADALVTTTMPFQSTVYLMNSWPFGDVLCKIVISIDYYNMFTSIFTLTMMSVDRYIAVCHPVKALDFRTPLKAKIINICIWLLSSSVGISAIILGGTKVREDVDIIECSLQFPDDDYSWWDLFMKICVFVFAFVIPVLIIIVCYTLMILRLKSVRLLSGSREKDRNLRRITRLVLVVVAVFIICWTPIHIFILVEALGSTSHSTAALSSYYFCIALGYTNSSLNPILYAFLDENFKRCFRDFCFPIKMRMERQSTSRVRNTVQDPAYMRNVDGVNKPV
# T1 sequence (P97266 whole entry): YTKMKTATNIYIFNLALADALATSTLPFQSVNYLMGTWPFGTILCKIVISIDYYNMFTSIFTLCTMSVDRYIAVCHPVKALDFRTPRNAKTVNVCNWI
Compound,IC50 (Mu-type opioid receptor [1]) [µM],IC50 [2] [µM],IC50 [3] [µM],Ki (Mu-type opioid receptor [4]) [µM],Ki [5] [µM]
CN1CC[C@]23c4c5ccc(O)c4O[C@H]2Cc2c([nH]c4ccccc24)[C@H]3[C@H]1C5,0.92,1,0.99,–,–
Oc1ccc2c3c1O[C@H]1Cc4c([nH]c5ccccc45)[C@H]4[C@@H](C2)N(CC2CC2)CC[C@]314,–,8.2,–,0.0049,0.033
Oc1ccc2c3c1O[C@H]1c4[nH]c5ccccc5c4C[C@@]4(O)[C@@H](C2)N(CC2CC2)CC[C@]314 [NALTRINDOLE],11.2,459,2,–,–
